Measured values taken from patent US20260008746A1, “CATIONIC LIPID COMPOUND WITH HIGH EFFICIENCY, LOW TOXICITY AND STABLE EXPRESSION, AND COMPOSITION COMPRISNG SAME” (HANGZHOU TIANLONG PHARMACEUTICAL CO., LTD, priority 2023, published 2026).

How the values were obtained:
293T cells [1] = test: Cell survival rate determination (CCK-8); assay type: cell-based; conditions: for Cell survival rate (%): LNP formulation containing 1.5 μg Fluc-mRNA, 24 hours, CCK-8, absorbance at 450 nm; for cell survival rate lower than that of YK-101: cell survival rate of YK-101 minus that of named substance; for cell survival rate lower than that of YK-107: cell survival rate of YK-107 minus that of named substance; for cell survival rate lower than that of YK-108: cell survival rate of YK-108 minus that of named substance
Outline: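 293T cells were seeded overnight at 10,000 cells/well in 96-well plates, then exposed for 24 h to LNP containing 1.5 μg Fluc-mRNA (cationic:neutral:structural:polymer-conjugated lipid, 49:10:39.5:1.5 molar) or to Lipofectamine 3000. Viability was read by CCK-8, 1 h incubation, absorbance 450 nm.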

[2] = Determination of particle size and polydispersity index (PDI) of lipid nanoparticles by dynamic light scattering; assay type: physicochemical; conditions: LNP formulation of named cationic lipid/DSPC/cholesterol/DMG-PEG2000 49:10:39.5:1.5; for Particle size (nm): 90° scattering angle, 25° C
Protocol: The cationic lipids listed in Table 1 were dissolved in ethanol with DSPC (AVT (Shanghai) Pharmaceutical Technology Co., Ltd.), cholesterol (AVT (Shanghai) Pharmaceutical Technology Co., Ltd.) and DMG-PEG2000 according to a molar ratio of 49:10:39.5:1.5, respectively, to prepare lipid solution in ethanol. The lipid solution in ethanol was quickly added to citrate buffer (pH=4 to 5) by ethanol injection method, and vortexed for 30 s for later use. eGFP-mRNA (from Shanghai Biohub International Trade Co., Ltd) or Fluc-mRNA (from Shanghai Biohub International Trade Co., Ltd) was diluted in citrate buffer (pH=4 to 5) to give an aqueous mRNA solution. A certain volume of liposome solution and mRNA aqueous solution were used to prepare liposomes at a weight ratio of total lipids to mRNA of 15:1. The mixtures were sonicated at 25° C. for 15 min (with an ultrasonic frequency of 40 kHz and an ultrasonic power of 800 W). The resulting liposomes were diluted to 10 times volume with PBS, and then ultrafiltered with a 300 KDa ultrafiltration tube to remove ethanol. Then the volume was fixed to a certain volume with PBS to give an LNP formulation encapsulating eGFP-mRNA or Fluc-mRNA using cationic lipid/DSPC/cholesterol/DMG-PEG2000 (49:10:39.5:1.5 in molar percentage).
The particle size and polydispersity index (PDI) were determined by dynamic light scattering using Malvern laser particle size analyzer.
10 μL of the liposome solution was weighed, diluted to 1 mL with RNase-free deionized water, and added to the sample pool. Each sample was measured in triplicate. The measurement conditions were: 90° scattering angle, and 25° C.

BALB/C mice = test: In vivo imaging of Fluc-mRNA expression in mice delivered by LNP formulations; conditions: for average radiation intensity, 6 h / average radiation intensity, 24 h / average radiation intensity, 48 h / average radiation intensity, 7 d: LNP containing 10 pg Fluc-mRNA, intramuscular, female BALB/C mice
Protocol: The LNP formulation containing […] Fluc-mRNA was injected intramuscularly into female BALB/C mice aged 4-6 weeks old and weighed 17-19 g, and the mice were intraperitoneally injected with fluorescent imaging substrate at specific time points after administration (6h, 24 h, 48h and 7d), where the mice were allowed to move freely for 5 minutes, and then the average radiation intensity (corresponding to fluorescence expression intensity) of the protein expression of the mRNA carried by the LNP in the mice was detected by the IVIS Spectrum small animal in vivo imaging device. The test results are shown in Tables 11 to 14 and FIGS. 12 to 14.

293T cells [3] = test: Fluorescent detection of Fluc-mRNA (cell transfection efficiency of LNP formulations); assay type: cell-based; conditions: for Relative light unit (RLU): LNP formulation containing 0.3 μg Fluc-mRNA, 96-well plate, 24 hours; for Multiples (YK-101): RLU of YK-101 / RLU of named substance; for Multiples (YK-107): RLU of YK-107 / RLU of named substance; for Multiples (YK-108): RLU of YK-108 / RLU of named substance; for Ratio relative to SM-102: RLU of named substance / RLU of SM-102; for difference from SM-102 in Fluc-mRNA fluorescence (GraphPad Prism analysis): statistical comparison with SM-102
Outline: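 293T cells seeded at 10,000 per well, cultured overnight, then given LNP carrying 0.3 μg Fluc-mRNA (cationic:neutral:structured:PEG-lipid 49:10:39.5:1.5 molar). Incubated 24 h. Luciferase signal read with kit reagent on an IVIS imaging system.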

Row | Structure (SMILES) | Cell survival rate (%) (293T cells [1]) | cell survival rate lower than that of YK-101 (293T cells [1]) [%] | cell survival rate lower than that of YK-107 (293T cells [1]) [%] | cell survival rate lower than that of YK-108 (293T cells [1]) [%] | PDI(%) [2] [%] | Particle size (nm) [2] [nm] | average radiation intensity of YK-101, times that of named substance (BALB/C mice; 6 h) [times] | average radiation intensity of YK-107, times that of named substance (BALB/C mice; 6 h) [times] | average radiation intensity of YK-108, times that of named substance (BALB/C mice; 6 h) [times] | average radiation intensity of YK-101, times that of named substance (BALB/C mice; 24 h) [times] | average radiation intensity of YK-107, times that of named substance (BALB/C mice; 24 h) [times] | average radiation intensity of YK-108, times that of named substance (BALB/C mice; 24 h) [times] | average radiation intensity of YK-101, times that of named substance (BALB/C mice; 48 h) [times] | average radiation intensity of YK-107, times that of named substance (BALB/C mice; 48 h) [times] | average radiation intensity of YK-108, times that of named substance (BALB/C mice; 48 h) [times] | average radiation intensity of YK-101, times that of named substance (BALB/C mice; 7 d) [times] | average radiation intensity of YK-107, times that of named substance (BALB/C mice; 7 d) [times] | average radiation intensity of YK-108, times that of named substance (BALB/C mice; 7 d) [times] | average radiation intensity, 6 h (BALB/C mice; 6 h) | average radiation intensity, 24 h (BALB/C mice; 24 h) | further results
1 | CCCCCCC(CCCCCC)CCOC(=O)CCCCCCCN(CCO)CCCCCCCC(=O)OCCC(CCCCCC)CCCCCC [Compound 23, bis(3-hexylnonyl)-8, 8′-((2-hydroxyethyl)azadialkyl)dioctanoate, reference compound] | 70.91 | 19.21 | 19.54 | 18.95 | 7.7 | 140 | 2.5 | 2.7 | 3.4 | 9.4 | 11.6 | 12.5 | 5.6 | 6.8 | 7.0 | 2.1 | 2.3 | 2.4 | 599850 | 112670 | average radiation intensity, 48 h (BALB/C mice; 48 h): 33060; average radiation intensity, 7 d (BALB/C mice; 7 d): 5863; Relative light unit (RLU) (293T cells [3]): 1290824 RLU; Multiples (YK-101) (293T cells [3]): 15.75; Multiples (YK-107) (293T cells [3]): 17.32; Multiples (YK-108) (293T cells [3]): 19.10; Ratio relative to SM-102 (293T cells [3]): 0.84
2 | CCCCCCCCCC(=O)OCCCCN(CCO)CCCCCC(=O)OCC(CCCCCCCC)CCCCCCCC [YK-106] | 59.59 | 30.53 | 30.86 | 30.27 | 14.4 | 140 | 2.2 | 2.3 | 2.9 | 10.0 | 12.3 | 13.3 | 5.6 | 6.9 | 7.0 | 1.7 | 1.9 | 2.0 | 683840 | 105776 | average radiation intensity, 48 h (BALB/C mice; 48 h): 32940; average radiation intensity, 7 d (BALB/C mice; 7 d): 7052; Relative light unit (RLU) (293T cells [3]): 1628063 RLU; Multiples (YK-101) (293T cells [3]): 12.49; Multiples (YK-107) (293T cells [3]): 13.73; Multiples (YK-108) (293T cells [3]): 15.15; Ratio relative to SM-102 (293T cells [3]): 1.06; difference from SM-102 in Fluc-mRNA fluorescence (GraphPad Prism analysis) (293T cells [3]): no significant difference
3 | CCCCCCCCCCOC(=O)CCCN(CCO)CCCCC(=O)OCCC(CCCCCC)CCCCCC [YK-104] | 73.55 | 16.57 | 16.90 | 16.31 | 26.9 | 200 | 2.0 | 2.1 | 2.7 | 9.3 | 11.4 | 12.3 | 5.6 | 6.8 | 7.0 | 1.5 | 1.7 | 1.8 | 747000 | 113940 | average radiation intensity, 48 h (BALB/C mice; 48 h): 33095; average radiation intensity, 7 d (BALB/C mice; 7 d): 7969; Relative light unit (RLU) (293T cells [3]): 1693707 RLU; Multiples (YK-107) (293T cells [3]): 13.20; Multiples (YK-108) (293T cells [3]): 14.56; Ratio relative to SM-102 (293T cells [3]): 1.10; difference from SM-102 in Fluc-mRNA fluorescence (GraphPad Prism analysis) (293T cells [3]): no significant difference
